In PubChem BioAssay AID248 (DTP/NCI, 2004):
Values joined by “and” are separate entries in the source; they are usually repeats but may differ in a detail not shown here. Identical values can stand only once. Toxic doses and inconclusive results are not listed. No stated cut-off is given here; in the data, active means T/C of 150% or more; inactive means T/C below 125%.

System: L1210 leukemia ip in BDF1 mice, survival T/C
Assay: NCI In Vivo Anticancer Drug Screen. Data for tumor model L1210 Leukemia (intraperitoneal) in B6D2F1 (BDF1) mice
Conditions: endpoint: mean survival time, higher = longer survival
Outline: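 Survival endpoint. Drug-treated group vs vehicle group, expressed as T divided by C. Tumor passaged by transplantation.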

[1] = dose: 100.0 mg/kg/injection, schedule: Q01DX009 (ip), vehicle: Klucel (hydroxypropylcellulose) (HPC)
[2] = dose: 200.0 mg/kg/injection, schedule: Q01DX009 (ip), vehicle: Klucel (hydroxypropylcellulose) (HPC)
[3] = dose: 400.0 mg/kg/injection, schedule: Q01DX009 (ip), vehicle: Klucel (hydroxypropylcellulose) (HPC)
[4] = dose: 100.0 mg/kg/injection, schedule: Q04DX003 (ip), vehicle: saline
[5] = dose: 200.0 mg/kg/injection, schedule: Q04DX003 (ip), vehicle: saline
[6] = dose: 100.0 mg/kg/injection, schedule: Q04DX003 (ip), vehicle: Klucel (hydroxypropylcellulose) (HPC)
[7] = dose: 200.0 mg/kg/injection, schedule: Q04DX003 (ip), vehicle: Klucel (hydroxypropylcellulose) (HPC)
[8] = dose: 400.0 mg/kg/injection, schedule: Q04DX003 (ip), vehicle: Klucel (hydroxypropylcellulose) (HPC)
[9] = dose: 100.0 mg/kg/injection, schedule: Q01DX001 (ip), vehicle: saline
[10] = dose: 200.0 mg/kg/injection, schedule: Q01DX001 (ip), vehicle: saline
[11] = dose: 400.0 mg/kg/injection, schedule: Q01DX001 (ip), vehicle: saline
[12] = dose: 50.0 mg/kg/injection, schedule: Q01DX001 (ip), vehicle: saline
[13] = dose: 100.0 mg/kg/injection, schedule: Q04DX002 (ip), vehicle: Klucel (hydroxypropylcellulose) (HPC)
[14] = dose: 200.0 mg/kg/injection, schedule: Q04DX002 (ip), vehicle: Klucel (hydroxypropylcellulose) (HPC)
[15] = dose: 400.0 mg/kg/injection, schedule: Q04DX002 (ip), vehicle: Klucel (hydroxypropylcellulose) (HPC)

Measured: T/C

CNC1C(O)C(OC)OC2COC(c3ccccc3)OC21 (centres undefined)
inactive: dose: 100.0 mg/kg/injection, schedule: Q04DX003 (ip), vehicle: saline with Tween-80 93 % of control | dose: 200.0 mg/kg/injection, schedule: Q04DX003 (ip), vehicle: saline with Tween-80 93 % of control

O=C(N/N=C/c1c(O)ccc2ccccc12)c1ccccc1
inactive: [1] 113 % of control | [2] 103 % of control | [3] 108 % of control

CC(=O)c1cccc(NC(=O)c2cccc(F)c2)c1
inactive: [1] 95 % of control | [2] 97 % of control | [3] 95 % of control

CCN(CC)CCN(C)C(=O)C(c1ccccc1)c1ccccc1
inactive: [4] 98 % of control | [5] 93 % of control

Nc1ccc(CCc2nc(N)nc(N)c2-c2ccc(Cl)cc2)cc1
inactive: [6] 106 % of control | [7] 104 % of control | [8] 101 % of control

CONS(=O)c1ccc([N+](=O)[O-])cc1 (centres undefined)
inactive: [1] 98 % of control | [2] 96 % of control | [3] 100 % of control

CN(C)c1ccc(/C=C/C=C/C(=O)c2ccccc2)cc1
inactive: [6] 88 % of control | [7] 93 % of control | [8] 93 % of control

CC1(C)C2CC1C(O)(C(=O)O)C2 (centres undefined)
inactive: dose: 75.0 mg/kg/injection, schedule: Q01DX001 (ip), vehicle: acetone 94 % of control | dose: 150.0 mg/kg/injection, schedule: Q01DX001 (ip), vehicle: acetone 97 % of control | dose: 300.0 mg/kg/injection, schedule: Q01DX001 (ip), vehicle: acetone 96 % of control

Nc1nc2c(c(-c3ccc(Cl)cc3)n1)CN(CCCC(=O)O)C2=O
inactive: [9] 105 % of control | [4] 96 % of control | [10] 98 % of control | [5] 104 % of control | [11] 100 % of control | dose: 400.0 mg/kg/injection, schedule: Q04DX003 (ip), vehicle: saline 107 % of control

Cc1cc(C)c(NC(=O)Nc2cccc(Cl)c2)c(C)c1
inactive: [1] 100 % of control | [6] 101 % of control | [2] 105 % of control | [7] 94 % of control | [8] 89 % of control

CC(C)c1ccc(/C=N/N=C(N)N)cc1
inactive: dose: 3.8 mg/kg/injection, schedule: Q01DX Z (ip), vehicle: other 100 % of control | dose: 7.5 mg/kg/injection, schedule: Q01DX Z (ip), vehicle: other 102 % of control | dose: 15.0 mg/kg/injection, schedule: Q01DX Z (ip), vehicle: other 94 % of control

CC(=O)C(C(C)=O)C(C)(C)C
inactive: [12] 95 % of control | [9] 97 % of control | [10] 90 % of control | [11] 95 % of control

CC(N)c1cccc2ccccc12 (centres undefined)
inactive: dose: 25.0 mg/kg/injection, schedule: Q04DX002 (ip), vehicle: saline 98 % of control | dose: 50.0 mg/kg/injection, schedule: Q04DX002 (ip), vehicle: saline 94 % of control | dose: 100.0 mg/kg/injection, schedule: Q04DX002 (ip), vehicle: saline 98 % of control

OC1CC2(c3ccccc3)OC1(c1ccccc1)c1ccccc12 (centres undefined)
inactive: [13] 112 % of control | [14] 101 % of control | [15] 115 % of control

C(=C\c1cc[n+](CCc2ccccc2)cc1)/c1ccccc1
inactive: dose: 6.25 mg/kg/injection, schedule: Q04DX003 (ip), vehicle: saline with Tween-80 110 % of control | dose: 12.5 mg/kg/injection, schedule: Q04DX003 (ip), vehicle: saline with Tween-80 89 % of control | dose: 25.0 mg/kg/injection, schedule: Q04DX003 (ip), vehicle: saline with Tween-80 101 % of control

O=C(Cn1ccc(=O)[nH]c1=O)Nc1ccc(C(=O)O)cc1
inactive: [9] 96 % of control | [10] 111 % of control | [11] 96 % of control

CCCCCCC(OC(C)=O)OC(C)=O
inactive: dose: 222.0 mg/kg/injection, schedule: Q01DX Z (ip), vehicle: saline 101 % of control | dose: 333.0 mg/kg/injection, schedule: Q01DX Z (ip), vehicle: saline 103 % of control | dose: 500.0 mg/kg/injection, schedule: Q01DX Z (ip), vehicle: saline 104 % of control

CCCCCCCCCCCCCCOc1ccc(F)cc1F
inactive: [13] 111 % of control | [14] 107 % of control | [15] 96 % of control

CC1=NN(c2ccc(S(=O)(=O)O)cc2)/C(=N/N=C(N)N)C1
inactive: dose: 15.0 mg/kg/injection, schedule: Q01DX Z (ip), vehicle: carboxymethylcellulose (CMC) 96 % of control | dose: 30.0 mg/kg/injection, schedule: Q01DX Z (ip), vehicle: carboxymethylcellulose (CMC) 96 % of control | dose: 60.0 mg/kg/injection, schedule: Q01DX Z (ip), vehicle: carboxymethylcellulose (CMC) 97 % of control and 100 % of control | dose: 120.0 mg/kg/injection, schedule: Q01DX Z (ip), vehicle: carboxymethylcellulose (CMC) 100 % of control and 102 % of control | dose: 240.0 mg/kg/injection, schedule: Q01DX Z (ip), vehicle: carboxymethylcellulose (CMC) 101 % of control | dose: 480.0 mg/kg/injection, schedule: Q01DX Z (ip), vehicle: carboxymethylcellulose (CMC) 97 % of control

O=C1OC(c2ccccc2)(c2ccccc2)Cc2ccccc21
inactive: dose: 100.0 mg/kg/injection, schedule: Q01DX009 (ip), vehicle: saline with Tween-80 97 % of control | [6] 93 % of control | dose: 200.0 mg/kg/injection, schedule: Q01DX009 (ip), vehicle: saline with Tween-80 106 % of control | dose: 400.0 mg/kg/injection, schedule: Q01DX009 (ip), vehicle: saline with Tween-80 95 % of control | [8] 86 % of control

Cn1cccc1/C=C/[N+](=O)[O-]
inactive: [12] 104 % of control | [9] 91 % of control

COc1ccc(C(C)C(C)=O)cc1 (centres undefined)
inactive: dose: 50.0 mg/kg/injection, schedule: Q01DX009 (ip), vehicle: saline with Tween-80 95 % of control

NC(CSCc1ccccc1)C(=O)O (centres undefined)
inactive: dose: 7.0 mg/kg/injection, schedule: Q01DX015 (ip), vehicle: saline 97 % of control | dose: 15.0 mg/kg/injection, schedule: Q01DX015 (ip), vehicle: saline 97 % of control | dose: 29.0 mg/kg/injection, schedule: Q01DX015 (ip), vehicle: saline 101 % of control | dose: 50.0 mg/kg/injection, schedule: Q01DX001 (ip), vehicle: carboxymethylcellulose (CMC) 89 % of control | dose: 58.0 mg/kg/injection, schedule: Q01DX015 (ip), vehicle: saline 97 % of control | dose: 100.0 mg/kg/injection, schedule: Q01DX001 (ip), vehicle: carboxymethylcellulose (CMC) 101 % of control | [6] 100 % of control | dose: 117.0 mg/kg/injection, schedule: Q01DX015 (ip), vehicle: saline 97 % of control | dose: 200.0 mg/kg/injection, schedule: Q01DX001 (ip), vehicle: carboxymethylcellulose (CMC) 89 % of control | [7] 94 % of control | dose: 233.0 mg/kg/injection, schedule: Q01DX015 (ip), vehicle: saline 95 % of control | [8] 96 % of control

COc1cc2c(cc1OC)N(S(=O)(=O)c1ccc(C)cc1)CCCC2=O
inactive: [1] 96 % of control | [6] 96 % of control | [2] 91 % of control | [7] 93 % of control | [3] 93 % of control | [8] 102 % of control

N#CC(C(N)=O)C1CC(=O)Oc2ccccc21 (centres undefined)
inactive: dose: 50.0 mg/kg/injection, schedule: Q01DX009 (ip), vehicle: Klucel (hydroxypropylcellulose) (HPC) 100 % of control | [1] 105 % of control | [2] 100 % of control

O=C1C=C/C(=N/c2ccc(O)o2)c2ccccc21
inactive: dose: 150.0 mg/kg/injection, schedule: Q01DX001 (ip), vehicle: saline 100 % of control
